# Laboratory results: publication PMC5622171 (Nature Communications, 2017)
# How the values were obtained:
# Assay in all cases: KINOMEscan kinase profiling
# Type in all cases: binding
# STK33 = target: T1, STK33 (Homo sapiens, UniProt Q9BYT3); conditions: read-out: %Inhibition by 10 μM SPA70
# T1 construct: purchased DiscoverX (Ambit Biosciences) KINOMEscan
# Outline: (§1)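 KINOMEscan profiling followed a published protocol. Kinases whose inhibition exceeded a set cut-off were then tested in a dilution series beginning at 30 µM.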
# TRPM6 = target: T2, TRPM6 (Homo sapiens, UniProt Q9BX84); conditions: read-out: %Inhibition by 10 μM SPA70
# T2 construct: purchased DiscoverX (Ambit Biosciences) KINOMEscan
# Outline: as §1
# CHEK2 = target: T3, CHEK2 (Homo sapiens, UniProt O96017); conditions: read-out: %Inhibition by 10 μM SPA70
# T3 construct: purchased DiscoverX (Ambit Biosciences) KINOMEscan
# Outline: as §1
# LATS2 = target: T4, LATS2 (Homo sapiens, UniProt Q9NRM7)
# T4 construct: purchased DiscoverX (Ambit Biosciences) KINOMEscan
# Outline: as §1
# BTK = target: T5, BTK (Homo sapiens, UniProt Q06187)
# T5 construct: purchased DiscoverX (Ambit Biosciences) KINOMEscan
# Outline: as §1
# IKK-alpha = target: T6, IKK-alpha (Homo sapiens, UniProt O15111); conditions: read-out: %Inhibition by 10 μM SPA70
# T6 construct: purchased DiscoverX (Ambit Biosciences) KINOMEscan
# Outline: as §1
# MLK1 = target: T7, MLK1 (Homo sapiens, UniProt P80192); conditions: read-out: %Inhibition by 10 μM SPA70
# T7 construct: purchased DiscoverX (Ambit Biosciences) KINOMEscan
# Outline: as §1
# [1] = target: T8, RSK3(Kin.Dom.2-C-terminal) (Homo sapiens, UniProt Q15349); conditions: read-out: %Inhibition by 10 μM SPA70
# T8 construct: RSK3(Kin.Dom.2-C-terminal); purchased DiscoverX (Ambit Biosciences) KINOMEscan
# Outline: as §1
# [2] = target: T9, JAK3(JH1domain-catalytic) (Homo sapiens, UniProt P52333); conditions: read-out: %Inhibition by 10 μM SPA70
# T9 construct: JAK3(JH1domain-catalytic); purchased DiscoverX (Ambit Biosciences) KINOMEscan
# Outline: as §1
# NEK6 = target: T10, NEK6 (Homo sapiens, UniProt Q9HC98); conditions: read-out: %Inhibition by 10 μM SPA70
# T10 construct: purchased DiscoverX (Ambit Biosciences) KINOMEscan
# Outline: as §1
# TIE1 = target: T11, TIE1 (Homo sapiens, UniProt P35590); conditions: read-out: %Inhibition by 10 μM SPA70
# T11 construct: purchased DiscoverX (Ambit Biosciences) KINOMEscan
# Outline: as §1
# MRCKB = target: T12, MRCKB (Homo sapiens, UniProt Q9Y5S2); conditions: read-out: %Inhibition by 10 μM SPA70
# T12 construct: purchased DiscoverX (Ambit Biosciences) KINOMEscan
# Outline: as §1
# EPHA7 = target: T13, EPHA7 (Homo sapiens, UniProt Q15375); conditions: read-out: %Inhibition by 10 μM SPA70
# T13 construct: purchased DiscoverX (Ambit Biosciences) KINOMEscan
# Outline: as §1
# JNK2 = target: T14, JNK2 (Homo sapiens, UniProt P45984)
# T14 construct: purchased DiscoverX (Ambit Biosciences) KINOMEscan
# Outline: as §1
# CSK = target: T15, CSK (Homo sapiens, UniProt P41240)
# T15 construct: purchased DiscoverX (Ambit Biosciences) KINOMEscan
# Outline: as §1
# PDGFRA = target: T16, PDGFRA (Homo sapiens, UniProt P16234); conditions: read-out: %Inhibition by 10 μM SPA70
# T16 construct: purchased DiscoverX (Ambit Biosciences) KINOMEscan
# Outline: as §1
# TLK1 = target: T17, TLK1 (Homo sapiens, UniProt Q9UKI8); conditions: read-out: %Inhibition by 10 μM SPA70
# T17 construct: purchased DiscoverX (Ambit Biosciences) KINOMEscan
# Outline: as §1
# PIK4CB = target: T18, PIK4CB (Homo sapiens, UniProt Q9UBF8); conditions: read-out: %Inhibition by 10 μM SPA70
# T18 construct: purchased DiscoverX (Ambit Biosciences) KINOMEscan
# Outline: as §1
# AURKC = target: T19, AURKC (Homo sapiens, UniProt Q9UQB9); conditions: read-out: %Inhibition by 10 μM SPA70
# T19 construct: purchased DiscoverX (Ambit Biosciences) KINOMEscan
# Outline: as §1
# CAMK1 = target: T20, CAMK1 (Homo sapiens, UniProt Q14012); conditions: read-out: %Inhibition by 10 μM SPA70
# T20 construct: purchased DiscoverX (Ambit Biosciences) KINOMEscan
# Outline: as §1
# SRMS = target: T21, SRMS (Homo sapiens, UniProt Q9H3Y6); conditions: read-out: %Inhibition by 10 μM SPA70
# T21 construct: purchased DiscoverX (Ambit Biosciences) KINOMEscan
# Outline: as §1
# FGFR3 = target: T22, FGFR3 (Homo sapiens, UniProt P22607); conditions: read-out: %Inhibition by 10 μM SPA70
# T22 construct: purchased DiscoverX (Ambit Biosciences) KINOMEscan
# Outline: as §1
# PAK4 = target: T23, PAK4 (Homo sapiens, UniProt O96013); conditions: read-out: %Inhibition by 10 μM SPA70
# T23 construct: purchased DiscoverX (Ambit Biosciences) KINOMEscan
# Outline: as §1
# NLK = target: T24, NLK (Homo sapiens, UniProt Q9UBE8); conditions: read-out: %Inhibition by 10 μM SPA70
# T24 construct: purchased DiscoverX (Ambit Biosciences) KINOMEscan
# Outline: as §1
# BRAF = target: T25, BRAF (Homo sapiens, UniProt P15056); conditions: read-out: %Inhibition by 10 μM SPA70
# T25 construct: purchased DiscoverX (Ambit Biosciences) KINOMEscan
# Outline: as §1
# AAK1 = target: T26, AAK1 (Homo sapiens, UniProt Q2M2I8); conditions: read-out: %Inhibition by 10 μM SPA70
# T26 construct: purchased DiscoverX (Ambit Biosciences) KINOMEscan
# Outline: as §1
# EIF2AK1 = target: T27, EIF2AK1 (Homo sapiens, UniProt Q9BQI3); conditions: read-out: %Inhibition by 10 μM SPA70
# T27 construct: purchased DiscoverX (Ambit Biosciences) KINOMEscan
# Outline: as §1
# YANK3 = target: T28, YANK3 (Homo sapiens, UniProt Q86UX6); conditions: read-out: %Inhibition by 10 μM SPA70
# T28 construct: purchased DiscoverX (Ambit Biosciences) KINOMEscan
# Outline: as §1
# IKK-beta = target: T29, IKK-beta (Homo sapiens, UniProt O14920); conditions: read-out: %Inhibition by 10 μM SPA70
# T29 construct: purchased DiscoverX (Ambit Biosciences) KINOMEscan
# Outline: as §1
# CDK8 = target: T30, CDK8 (Homo sapiens, UniProt P49336)
# T30 construct: purchased DiscoverX (Ambit Biosciences) KINOMEscan
# Outline: as §1
# CDK5 = target: T31, CDK5 (Homo sapiens, UniProt Q00535)
# T31 construct: purchased DiscoverX (Ambit Biosciences) KINOMEscan
# Outline: as §1
# DAPK3 = target: T32, DAPK3 (Homo sapiens, UniProt O43293); conditions: read-out: %Inhibition by 10 μM SPA70
# T32 construct: purchased DiscoverX (Ambit Biosciences) KINOMEscan
# Outline: as §1
# DDR1 = target: T33, DDR1 (Homo sapiens, UniProt Q08345); conditions: read-out: %Inhibition by 10 μM SPA70
# T33 construct: purchased DiscoverX (Ambit Biosciences) KINOMEscan
# Outline: as §1
# EPHA1 = target: T34, EPHA1 (Homo sapiens, UniProt P21709); conditions: read-out: %Inhibition by 10 μM SPA70
# T34 construct: purchased DiscoverX (Ambit Biosciences) KINOMEscan
# Outline: as §1
# CDKL3 = target: T35, CDKL3 (Homo sapiens, UniProt Q8IVW4); conditions: read-out: %Inhibition by 10 μM SPA70
# T35 construct: purchased DiscoverX (Ambit Biosciences) KINOMEscan
# Outline: as §1
# ERBB3 = target: T36, ERBB3 (Homo sapiens, UniProt P21860); conditions: read-out: %Inhibition by 10 μM SPA70
# T36 construct: purchased DiscoverX (Ambit Biosciences) KINOMEscan
# Outline: as §1
# PHKG2 = target: T37, PHKG2 (Homo sapiens, UniProt P15735); conditions: read-out: %Inhibition by 10 μM SPA70
# T37 construct: purchased DiscoverX (Ambit Biosciences) KINOMEscan
# Outline: as §1
# TRKB = target: T38, TRKB (Homo sapiens, UniProt Q16620); conditions: read-out: %Inhibition by 10 μM SPA70
# T38 construct: purchased DiscoverX (Ambit Biosciences) KINOMEscan
# Outline: as §1
# GRK1 = target: T39, GRK1 (Homo sapiens, UniProt Q15835); conditions: read-out: %Inhibition by 10 μM SPA70
# T39 construct: purchased DiscoverX (Ambit Biosciences) KINOMEscan
# Outline: as §1
# CSNK1A1 = target: T40, CSNK1A1 (Homo sapiens, UniProt P48729); conditions: read-out: %Inhibition by 10 μM SPA70
# T40 construct: purchased DiscoverX (Ambit Biosciences) KINOMEscan
# Outline: as §1
# ITK = target: T41, ITK (Homo sapiens, UniProt Q08881)
# T41 construct: purchased DiscoverX (Ambit Biosciences) KINOMEscan
# Outline: as §1
# T31 sequence (Q00535 whole entry): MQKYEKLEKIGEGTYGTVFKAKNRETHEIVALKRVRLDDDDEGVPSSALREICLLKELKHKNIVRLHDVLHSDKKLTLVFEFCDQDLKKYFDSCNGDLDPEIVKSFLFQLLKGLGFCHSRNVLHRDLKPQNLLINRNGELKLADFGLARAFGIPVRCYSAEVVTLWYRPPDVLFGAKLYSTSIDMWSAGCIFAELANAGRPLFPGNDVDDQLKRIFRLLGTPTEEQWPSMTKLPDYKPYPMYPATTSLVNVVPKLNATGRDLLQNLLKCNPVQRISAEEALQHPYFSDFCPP
# T15 sequence (P41240 whole entry): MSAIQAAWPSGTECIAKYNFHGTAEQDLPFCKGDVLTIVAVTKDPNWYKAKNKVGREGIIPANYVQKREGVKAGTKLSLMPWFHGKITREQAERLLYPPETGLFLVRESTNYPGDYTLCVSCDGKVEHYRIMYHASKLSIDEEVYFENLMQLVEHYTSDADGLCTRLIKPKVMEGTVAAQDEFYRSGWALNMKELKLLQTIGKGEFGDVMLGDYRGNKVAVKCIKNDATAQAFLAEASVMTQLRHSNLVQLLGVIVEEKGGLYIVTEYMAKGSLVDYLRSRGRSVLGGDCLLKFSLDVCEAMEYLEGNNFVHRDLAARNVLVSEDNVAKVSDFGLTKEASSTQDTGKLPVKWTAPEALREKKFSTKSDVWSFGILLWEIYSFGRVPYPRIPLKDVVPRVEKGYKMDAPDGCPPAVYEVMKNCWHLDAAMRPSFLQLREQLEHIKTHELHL
# T29 sequence (O14920 whole entry): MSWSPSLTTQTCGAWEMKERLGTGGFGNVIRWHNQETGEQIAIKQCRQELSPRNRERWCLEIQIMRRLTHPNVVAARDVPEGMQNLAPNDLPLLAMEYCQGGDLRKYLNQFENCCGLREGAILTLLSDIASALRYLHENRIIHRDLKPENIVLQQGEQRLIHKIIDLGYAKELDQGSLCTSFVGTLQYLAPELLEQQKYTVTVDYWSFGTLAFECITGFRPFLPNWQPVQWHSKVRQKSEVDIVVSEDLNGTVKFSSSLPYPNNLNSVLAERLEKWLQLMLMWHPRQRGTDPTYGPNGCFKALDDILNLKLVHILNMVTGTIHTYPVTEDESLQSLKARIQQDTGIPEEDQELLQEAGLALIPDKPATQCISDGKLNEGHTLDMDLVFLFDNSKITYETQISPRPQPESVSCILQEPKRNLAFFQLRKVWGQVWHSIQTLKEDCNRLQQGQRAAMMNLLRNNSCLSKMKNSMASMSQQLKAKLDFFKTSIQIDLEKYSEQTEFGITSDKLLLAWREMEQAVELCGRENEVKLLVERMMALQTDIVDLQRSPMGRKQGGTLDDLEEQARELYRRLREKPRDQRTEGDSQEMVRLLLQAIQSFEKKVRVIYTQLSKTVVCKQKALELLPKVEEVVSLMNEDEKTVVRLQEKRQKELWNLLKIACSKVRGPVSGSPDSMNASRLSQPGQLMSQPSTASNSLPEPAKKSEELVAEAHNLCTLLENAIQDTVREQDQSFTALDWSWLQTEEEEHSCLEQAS
# T33 sequence (Q08345 19-913): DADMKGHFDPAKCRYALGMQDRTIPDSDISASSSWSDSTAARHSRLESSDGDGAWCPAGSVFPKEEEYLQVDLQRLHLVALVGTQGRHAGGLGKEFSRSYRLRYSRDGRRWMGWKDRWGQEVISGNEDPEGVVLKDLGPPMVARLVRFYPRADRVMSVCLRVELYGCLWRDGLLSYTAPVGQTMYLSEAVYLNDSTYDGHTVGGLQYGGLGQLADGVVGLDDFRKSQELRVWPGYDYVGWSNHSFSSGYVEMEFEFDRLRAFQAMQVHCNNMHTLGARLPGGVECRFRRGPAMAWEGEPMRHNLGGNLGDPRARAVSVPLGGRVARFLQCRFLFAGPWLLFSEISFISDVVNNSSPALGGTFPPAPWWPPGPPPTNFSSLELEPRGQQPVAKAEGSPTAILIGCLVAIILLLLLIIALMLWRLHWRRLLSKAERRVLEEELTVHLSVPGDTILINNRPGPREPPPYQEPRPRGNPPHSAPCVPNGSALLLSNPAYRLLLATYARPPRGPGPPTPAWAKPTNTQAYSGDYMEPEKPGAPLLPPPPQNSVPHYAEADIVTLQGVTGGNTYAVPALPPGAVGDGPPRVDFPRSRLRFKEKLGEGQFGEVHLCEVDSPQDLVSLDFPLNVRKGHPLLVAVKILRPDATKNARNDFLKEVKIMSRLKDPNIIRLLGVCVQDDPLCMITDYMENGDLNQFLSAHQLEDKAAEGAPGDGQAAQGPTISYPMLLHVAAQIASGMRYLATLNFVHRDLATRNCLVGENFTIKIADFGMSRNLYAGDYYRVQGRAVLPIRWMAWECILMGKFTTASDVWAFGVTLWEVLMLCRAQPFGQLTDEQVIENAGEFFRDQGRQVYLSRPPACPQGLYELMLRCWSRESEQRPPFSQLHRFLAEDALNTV
# T5 sequence (Q06187 whole entry): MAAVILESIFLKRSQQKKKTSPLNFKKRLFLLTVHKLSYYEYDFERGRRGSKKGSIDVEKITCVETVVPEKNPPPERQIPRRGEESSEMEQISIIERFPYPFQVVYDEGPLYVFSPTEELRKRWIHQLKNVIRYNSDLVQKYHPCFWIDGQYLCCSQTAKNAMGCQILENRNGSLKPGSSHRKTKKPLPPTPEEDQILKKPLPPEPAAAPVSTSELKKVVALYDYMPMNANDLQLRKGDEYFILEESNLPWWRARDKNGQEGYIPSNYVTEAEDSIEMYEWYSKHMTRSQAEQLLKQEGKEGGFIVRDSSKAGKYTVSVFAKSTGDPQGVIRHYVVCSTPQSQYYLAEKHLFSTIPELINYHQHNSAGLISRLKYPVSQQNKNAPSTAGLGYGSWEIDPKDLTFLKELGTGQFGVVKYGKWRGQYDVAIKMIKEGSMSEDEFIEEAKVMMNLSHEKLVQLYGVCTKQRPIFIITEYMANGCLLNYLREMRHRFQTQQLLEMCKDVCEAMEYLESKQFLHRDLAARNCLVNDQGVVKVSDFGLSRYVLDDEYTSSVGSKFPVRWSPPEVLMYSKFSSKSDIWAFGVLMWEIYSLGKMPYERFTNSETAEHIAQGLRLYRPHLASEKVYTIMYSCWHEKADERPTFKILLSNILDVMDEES
# T4 sequence (Q9NRM7 whole entry): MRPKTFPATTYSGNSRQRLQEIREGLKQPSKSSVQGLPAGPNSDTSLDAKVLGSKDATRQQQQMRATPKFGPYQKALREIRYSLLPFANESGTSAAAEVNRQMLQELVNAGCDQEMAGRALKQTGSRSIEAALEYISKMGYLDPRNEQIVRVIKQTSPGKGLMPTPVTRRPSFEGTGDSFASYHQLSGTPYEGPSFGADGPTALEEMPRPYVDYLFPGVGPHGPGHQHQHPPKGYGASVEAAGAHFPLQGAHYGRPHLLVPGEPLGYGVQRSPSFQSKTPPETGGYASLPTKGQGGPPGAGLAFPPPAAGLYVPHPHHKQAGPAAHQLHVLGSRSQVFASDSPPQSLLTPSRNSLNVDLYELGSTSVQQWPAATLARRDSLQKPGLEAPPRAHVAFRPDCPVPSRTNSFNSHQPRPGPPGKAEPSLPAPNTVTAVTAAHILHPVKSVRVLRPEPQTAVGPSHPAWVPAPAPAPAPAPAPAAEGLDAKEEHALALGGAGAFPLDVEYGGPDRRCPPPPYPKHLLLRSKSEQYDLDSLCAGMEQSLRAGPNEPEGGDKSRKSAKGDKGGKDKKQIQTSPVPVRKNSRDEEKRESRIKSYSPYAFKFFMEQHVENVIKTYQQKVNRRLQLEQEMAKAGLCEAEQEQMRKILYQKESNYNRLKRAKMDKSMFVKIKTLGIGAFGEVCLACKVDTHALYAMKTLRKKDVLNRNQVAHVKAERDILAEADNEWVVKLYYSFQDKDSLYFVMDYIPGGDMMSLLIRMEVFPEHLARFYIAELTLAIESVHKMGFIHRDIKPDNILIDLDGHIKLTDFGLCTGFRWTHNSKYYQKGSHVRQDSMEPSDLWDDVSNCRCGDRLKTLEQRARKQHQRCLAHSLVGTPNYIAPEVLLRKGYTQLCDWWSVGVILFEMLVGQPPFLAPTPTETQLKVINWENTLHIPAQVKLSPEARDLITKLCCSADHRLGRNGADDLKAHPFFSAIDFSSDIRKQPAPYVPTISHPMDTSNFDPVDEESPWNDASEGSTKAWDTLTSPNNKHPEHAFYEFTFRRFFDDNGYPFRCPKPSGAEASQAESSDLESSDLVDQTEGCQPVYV
# T22 sequence (P22607 23-806): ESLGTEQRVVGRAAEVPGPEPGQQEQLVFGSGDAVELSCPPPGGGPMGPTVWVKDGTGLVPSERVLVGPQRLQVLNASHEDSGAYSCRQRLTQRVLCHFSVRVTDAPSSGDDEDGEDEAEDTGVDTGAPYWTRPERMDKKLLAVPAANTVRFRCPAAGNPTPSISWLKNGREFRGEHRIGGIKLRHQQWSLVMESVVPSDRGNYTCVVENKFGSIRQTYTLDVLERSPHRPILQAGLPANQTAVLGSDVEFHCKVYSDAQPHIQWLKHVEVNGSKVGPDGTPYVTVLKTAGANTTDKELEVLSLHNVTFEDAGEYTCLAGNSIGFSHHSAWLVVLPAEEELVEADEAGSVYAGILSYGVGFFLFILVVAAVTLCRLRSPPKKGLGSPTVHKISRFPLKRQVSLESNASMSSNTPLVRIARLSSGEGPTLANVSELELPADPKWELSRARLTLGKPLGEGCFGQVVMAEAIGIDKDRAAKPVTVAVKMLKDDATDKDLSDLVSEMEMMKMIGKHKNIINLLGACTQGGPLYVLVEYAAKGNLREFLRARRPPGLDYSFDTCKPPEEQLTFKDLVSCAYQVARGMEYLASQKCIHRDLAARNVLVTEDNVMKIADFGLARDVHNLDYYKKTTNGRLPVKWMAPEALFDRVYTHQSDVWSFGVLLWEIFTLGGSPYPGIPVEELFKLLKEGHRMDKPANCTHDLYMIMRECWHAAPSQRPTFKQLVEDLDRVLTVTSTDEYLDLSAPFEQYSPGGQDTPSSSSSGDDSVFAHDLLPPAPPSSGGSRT
smiles,measurement,setting,value
COc1ccc(OC)c(-n2nnc(S(=O)(=O)c3ccc(C(C)(C)C)cc3)c2C)c1 [SPA70],inhibition at 10 µM,STK33,0%
same,inhibition at 10 µM,TRPM6,31%
same,inhibition at 10 µM,CHEK2,23%
same,%Inhibition by 10 μM SPA70,LATS2,0%
same,%Inhibition by 10 μM SPA70,BTK,23%
same,inhibition at 10 µM,IKK-alpha,10%
same,inhibition at 10 µM,MLK1,0%
same,inhibition at 10 µM,[1],19%
same,inhibition at 10 µM,[2],5%
same,inhibition at 10 µM,NEK6,0%
same,inhibition at 10 µM,TIE1,0%
same,inhibition at 10 µM,MRCKB,0%
same,inhibition at 10 µM,EPHA7,0%
same,%Inhibition by 10 μM SPA70,JNK2,0%
same,%Inhibition by 10 μM SPA70,CSK,9%
same,inhibition at 10 µM,PDGFRA,36%
same,inhibition at 10 µM,TLK1,23%
same,inhibition at 10 µM,PIK4CB,27%
same,inhibition at 10 µM,AURKC,2%
same,inhibition at 10 µM,CAMK1,0%
same,inhibition at 10 µM,SRMS,0%
same,inhibition at 10 µM,FGFR3,0%
same,inhibition at 10 µM,PAK4,0%
same,inhibition at 10 µM,NLK,16%
same,inhibition at 10 µM,BRAF,0%
same,inhibition at 10 µM,AAK1,11%
same,inhibition at 10 µM,EIF2AK1,0%
same,inhibition at 10 µM,YANK3,0%
same,inhibition at 10 µM,IKK-beta,26%
same,%Inhibition by 10 μM SPA70,CDK8,2%
same,%Inhibition by 10 μM SPA70,CDK5,not inhibited
same,inhibition at 10 µM,CDK5; read-out: %Inhibition by 10 μM SPA70,0%
same,inhibition at 10 µM,DAPK3,0%
same,inhibition at 10 µM,DDR1,0%
same,inhibition at 10 µM,EPHA1,0%
same,inhibition at 10 µM,CDKL3,6%
same,inhibition at 10 µM,ERBB3,42%
same,inhibition at 10 µM,PHKG2,0%
same,inhibition at 10 µM,TRKB,0%
same,inhibition at 10 µM,GRK1,0%
same,inhibition at 10 µM,CSNK1A1,1%
same,%Inhibition by 10 μM SPA70,ITK,0%
